# According to PMC8155056, “Cooperative inhibition of SNARE-mediated vesicle fusion by α-synuclein monomers and oligomers” (Scientific Reports, 2021):
# “Also recorded” adds a separate entry of the source.
# Tests used:
# [1] = tested on: α-Syn oligomers and monomers; assay: Western blot of α-Syn monomer incubated with preformed oligomers; conditions: α-Syn monomer (500 nM) with preformed oligomers (10 nM), no dopamine, 37 °C, 12 h / up to 10 hours (Fig. S4)
# Protocol: We first tested whether the incubation of the α-Syn monomer with oligomers increases the amount of α-Syn oligomers. […] This is consistent with previous work showing that dopamine-modified α-Syn oligomers are not seeding competent.
# Purified proteins were subjected to 15% SDS/PAGE and then transferred to polyvinylidene fluoride membranes (Bio-Rad), which were then blocked with 5% (w/v) skim milk in Tris-buffered saline with 0.1% Tween 20 detergent (TBST) (500 mM Tris, pH 8.5; 150 mM NaCl; […]) for 1 h and incubated with α-Syn primary antibody [sc-52979 (Santa Cruz Biotechnology) at a 1:750 dilution factor] for 12 h at 4 °C. The membrane was rinsed with TBST, incubated with anti-mouse IgG peroxidase secondary antibody (Sigma; 1:2500 dilution factor), washed again with TBST, and reacted with chemiluminescent substrate solution (ThermoFisher Scientific, SuperSignal West Pico Chemiluminescent Substrate) for 1 min. Resulting bands were detected using an LAS-4000 instrument (Fujifilm Life Science).
# Fig. S4. […] Vesicle compositions are 73% PC, 20% cholesterol, and 7% PS. α-Syn monomers (500 nM) were incubated with the purified dopamine-induced oligomers (10 nM) at 37 ℃ for up to 10 hours and then the mixtures were applied to the Western blot analysis and probed with anti–α-Syn antibody. […] The image was edited by Adobe Illustrator CS6 (Adobe).
# [2] = tested on: SNARE-mediated vesicle fusion (v-vesicles without PS); assay: In vitro lipid-mixing (FRET) assay with v-vesicles prepared with 0% PS; format: biochemical; conditions: v-vesicles 0% PS
# Protocol: Figure 3 α-Syn monomer interactions with the lipid membrane enable cooperative inhibition of vesicle fusion. (A) The effect of the lipid-binding-deficient mutant of the α-Syn monomer (T44P/A89P) on fusion inhibition. v-Vesicles (V) were incubated with the T44P/A89P monomer for 10 min, and then α-Syn oligomers and t-vesicles (T) were added to the premixture. T and V (20 μM lipid concentration) were mixed together at 37 °C without α-Syn (T-V, gray line). […] A control measurement using soluble Syb2 confirmed that lipid mixing was driven by SNARE complex formation (beige line). Bar graphs were obtained from the values at 2000s from the FRET measurements (± SEM, N = 3). *P < 0.05, **P < 0.01, ***P < 0.001 by Student’s t test. (B) The effect of the negatively charged lipid (PS) on fusion inhibition. v-Vesicles (V) prepared with 0% PS were used in the measurement. v-Vesicles without PS were incubated with wild-type α-Syn monomer, and then t-vesicles (T) and oligomers were added to the premixture. […]
# (§1) t-Vesicles labeled with DiI and v-vesicles labeled with DiD were mixed together to reach a 20 μM lipid concentration. […] We used 532-nm light for excitation and detected the FRET signal (at 690 nm) every 10 s using a temperature-controlled fluorescence spectrophotometer (Cary Eclipse, Agilent) at 37 °C.
# [3] = tested on: neuronal SNARE-mediated vesicle fusion (t-SNAREs syntaxin HT/SNAP25 and v-SNARE Syb2); assay: In vitro lipid-mixing (FRET) assay of SNARE-mediated vesicle fusion, v-vesicles with PS; format: biochemical
# Source text: To address this question, we performed an in vitro lipid-mixing assay using fluorescently labeled proteoliposomes[31],[32]. In this assay, t-SNAREs [complexes of syntaxin Habc-trunctated (HT) (amino acids 168–288 of syntaxin 1A, lacking the Habc domain) and synaptosomal-associated protein-25 (SNAP25)] and v-SNARE Syb2 were incorporated into two different liposomes (t- and v-vesicles, respectively)[15],[31]. When t-vesicles doped with donor dyes (T) and v-vesicles doped with acceptor dyes (V) were fused together through SNARE complex formation[31],[33],[34], the lipids from the two types of vesicles mixed (Fig. 1B). This lipid mixing was monitored by the fluorescence resonance energy transfer (FRET) signal between 1,1′-dioctadecyl-3,3,3′,3′-tetramethylindocarbocyanine perchlorate (DiI) and 1,1′-dioctadecyl3,3,3′,3′-tetramethylindodicarbocyanine perchlorate (DiD) dyes (Supplementary Fig. S1B). α-Syn oligomers were prepared by incubating the α-Syn monomer (15 μM) with dopamine (100 μM) at 37 °C for 72 h (Supplementary Fig. S2A) and purified using size exclusion chromatography (Supplementary Fig. S2B and C)[15],[35]–[37]. We have estimated that the oligomers contain approximately 17 α-Syn monomeric subunits in our previous work[15]. Without the addition of α-Syn oligomers, the T-V mixture presented a significant mixing of lipids (Fig. 1C, the gray line).
# We prepared three 30-residue peptides (CFα1, CFα2, and CFα3) that were mainly derived from the C-terminal domain of α-Syn (Anygen, South Korea) (Fig. 5A; Table 1) because the C-terminal domain of α-Syn (a.a. 96–140) is known to bind to the N-terminal domain of Syb2[26]. We confirmed the binding between the peptide and Syb2 using fluorescence anisotropy assay (Supplementary Fig. S8). […]
# as §1
# [4] = tested on: SNARE-mediated vesicle docking; conditions: nonaggregated α-Syn monomer, 10 μM; ref [42]; cited from earlier work
# Source text: For the molecular mechanism of the inhibition, we proposed that α-Syn oligomers interfere with vesicle docking by clustering vesicles. […] Nonaggregated α-Syn or its monomer uses its interaction with Syb2 to help SNARE complex assembly[26] and induces the clustering of vesicles or Syb2, which promotes SNARE complex formation[25],[30]. […] All the functions of the α-Syn monomer are beneficial for neurotransmitter release.
# [5] = tested on: Syb2-carrying v-vesicles; assay: Cryo-EM of v-vesicle clustering
# Protocol: Then, we tested the effect on vesicle clustering. We have proposed that α-Syn oligomers inhibit vesicle fusion by clustering synaptic vesicle mimics in vitro, thereby limiting the number of vesicles available for docking. A few micromolar α-Syn monomer is also known to induce vesicle clustering[27],[29],[30],[38]. Thus, it is possible that the α-Syn monomer by itself cannot induce vesicle clustering at the low concentration (less than 1 μM) that we applied in this work but assists α-Syn oligomers in clustering vesicles. We obtained images of v-vesicles treated with α-Syn oligomers in the presence and absence of monomers using cryo-electron microscopy (cryo-EM) (Fig. 2). The molar ratio of lipid: α-Syn oligomers: α-Syn monomers was 200:1:20. When more than ten vesicles were attached together, we assigned them as a vesicle clustering. In the absence of α-Syn, v-vesicles appeared without clustering (Fig. 2A). […] Cryo-EM could not resolve α-Syn oligomers because of its resolution limit. Since α-Syn oligomers are known to inhibit vesicle fusion through binding to the N-terminal domain of Syb2[15], we tested if their specific interactions with Syb2 are responsible for clustering the vesicles. We reconstituted v-vesicles with Syb2 lacking the N-terminal region (nt-Syb2, amino acids 29–116) and incubated them with α-Syn oligomers. […] While 22.7 ± 1.2 vesicles consisted of a cluster with α-Syn oligomers, 123.5 ± 11.5 vesicles clustered after the addition of α-Syn monomers together with oligomers. […] Although it is difficult to quantify the fraction of the flattened region, this structure was not observed in images of vesicles treated with α-Syn oligomers only (Fig. 2C, enlarged image). The addition of α-Syn monomer with α-Syn oligomers seemed to induce tighter adhesion between the vesicles.
# v-Vesicles were incubated with α-Syn (molar ratio of lipid:α-Syn oligomer: monomer = 200:1:20). A 200-mesh carbon grid (Electron Microscopy Sciences) was glow-discharged using the PELCO easiGlow plasma cleaning system (Ted Pella, Inc.). […]
substance,measurement,setting,value
α-synuclein [α-Syn monomer],change in amounts of oligomers and monomers,[1],"No change in the intensities of the oligomers, multimers, and monomer was observed; also recorded: no change in the amounts of oligomers and monomers was observed"
same,recovery of SNARE-mediated lipid mixing,"[2]; 2 μM wild-type α-Syn monomer with α-Syn oligomers, 37 °C, at 2000 s, N = 3",~100%
same,effect on fusion inhibition by oligomers,[2]; wild-type α-Syn monomer (200 nM to 2 μM) with α-Syn oligomers,the FRET signal increased; also recorded: attenuated
same,fusion efficiency (relative lipid mixing),"[3]; 10 nM α-Syn oligomers + 850 nM α-Syn monomer, monomer pre-incubated with V 10 min, 37 °C, at 1800 s, N = 3",25%
same,effect on fusion inhibition by oligomers,"[3]; wild-type α-Syn monomer together with 10 nM α-Syn oligomers, 37 °C",more severe inhibition of vesicle fusion between T and V was observed as the concentration of α-Syn monomer increased; also recorded: the FRET signal was lower than that of the α-Syn oligomer-treated vesicle fusion
same,effect on lipid mixing,"[3]; α-Syn monomer alone, 200–850 nM, 10 min incubation with v-vesicles, N = 3",negligible effect on lipid mixing; also recorded: no effect on SNARE-mediated lipid mixing; also recorded: negligible effect on SNARE-mediated vesicle fusion
same,effect on SNARE-dependent vesicle docking,[4],beneficial for SNARE-dependent vesicle docking
same,clustering of v-vesicles,"[5]; α-Syn monomer alone, lipid:monomer 10:1 (5 μM:0.5 μM)",no clustering of v-vesicles was observed
same,clustering of v-vesicles,"[5]; α-Syn monomer and oligomers, lipid:oligomers:monomers 200:1:20",they formed larger clusters; also recorded: The vesicle cluster was significantly larger than that observed in (C)
same,number of vesicles per cluster,"[5]; α-Syn monomers together with oligomers, lipid:oligomers:monomers 200:1:20",123.5 ± 11.5 vesicles
